Measurements: ChEMBL document CHEMBL1201862, “PubChem BioAssay data set” (2004)
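Dose response: 5 concentrations. Exposure: 48 h. Format: 96-well plates. Endpoint: linear interpolation; highest concentration if not reached. The concentration for 50% growth inhibition is given as GI50.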 The source made the active and inactive calls. No stated cut-off is given here; in the data, active = GI50 up to about 1.1 µM and inactive = higher. Positions of bridges follow the written chain, without caps; N, C: chain ends. Non-standard residues stand in square brackets, D forms with d. Residues, ends and D or L forms follow the SMILES beside them. *: point of attachment. Cbz = O=C(OCc1ccccc1)*; Aib = CC(C)(N)C(=O)O; OBn = c1ccc(CO*)cc1; βAla = NCCC(=O)O

Legend:
Assay in all cases: growth of human tumour cells (NCI), 48 h
A549 = test system: A549
SK-MEL-5 = test system: SK-MEL-5
BT-549 = test system: BT-549
HCC 2998 = test system: HCC 2998
SN12C = test system: SN12C
NCI-H460 = test system: NCI-H460
SK-MEL-2 = test system: SK-MEL-2
OVCAR-3 = test system: OVCAR-3
COLO 205 = test system: COLO 205
OVCAR-8 = test system: OVCAR-8
UACC-257 = test system: UACC-257
SNB-75 = test system: SNB-75
A498 = test system: A498
HOP-62 = test system: HOP-62
SF-268 = test system: SF-268
K562 = test system: K562
T47D = test system: T47D
Malme-3M = test system: Malme-3M
HT-29 = test system: HT-29
UO-31 = test system: UO-31

Row | Compound | GI50 (A549) | GI50 (SK-MEL-5) | GI50 (BT-549) | GI50 (HCC 2998) | GI50 (SN12C) | GI50 (NCI-H460) | GI50 (SK-MEL-2) | GI50 (OVCAR-3) | GI50 (COLO 205) | GI50 (OVCAR-8) | GI50 (UACC-257) | GI50 (SNB-75) | GI50 (A498) | GI50 (HOP-62) | GI50 (SF-268) | GI50 (K562) | GI50 (T47D) | GI50 (Malme-3M) | GI50 (HT-29) | GI50 (UO-31)
1 | CCOP(=O)(Nc1ccc2oc(=O)c3ccccc3c2c1)OCC | 41.9 µM (inactive) | 28.6 µM (inactive) | 15.2 µM (inactive) | 88.5 µM (inactive) | > 100 µM (inactive) | > 100 µM (inactive) | 62.5 µM (inactive) | 45.2 µM (inactive) | > 100 µM (inactive) | > 100 µM (inactive) | > 100 µM (inactive) | 66.2 µM (inactive) | 27.5 µM (inactive) | 62.1 µM (inactive) | 56.6 µM (inactive) | 38.1 µM (inactive) | 35.3 µM (inactive) | > 100 µM (inactive) | 63.2 µM (inactive) | –
2 | COC(=O)c1ccc(NCc2c(O)ccc(O)c2Br)cc1Cl | 54.7 µM (inactive) | 18.5 µM (inactive) | 11.2 µM (inactive) | 19.1 µM (inactive) | 12.6 µM (inactive) | 18.7 µM (inactive) | 19.1 µM (inactive) | 8.77 µM (inactive) | 18.1 µM (inactive) | 14.7 µM (inactive) | 25.2 µM (inactive) | 23.1 µM (inactive) | > 100 µM (inactive) | – | 17.4 µM (inactive) | 1.78 µM (inactive) | 19.6 µM (inactive) | 18.3 µM (inactive) | 20.7 µM (inactive) | 15.8 µM (inactive)
3 | COc1cc(C2c3cc4c(cc3OC(Nc3ccc(C(=O)O)cc3)C2C)OCO4)cc(OC)c1OC (stereo not drawn) | 0.373 µM (active) | 0.0735 µM (active) | 0.467 µM (active) | 0.295 µM (active) | 0.991 µM (active) | 0.326 µM (active) | 0.579 µM (active) | 0.285 µM (active) | 0.202 µM (active) | 0.422 µM (active) | > 40.3 µM (inactive) | 0.295 µM (active) | 0.714 µM (active) | 0.446 µM (active) | 0.504 µM (active) | 0.3 µM (active) | 0.458 µM (active) | 0.0655 µM (active) | 0.329 µM (active) | 0.426 µM (active)
4 | Cc1cccc2c(N)c3cccc(C(=O)NCC[N+](C)(C)Cc4ccc([N+](=O)[O-])n4C)c3nc12 | 1.92 µM (inactive) | 21.7 µM (inactive) | > 42.6 µM (inactive) | 10.6 µM (inactive) | 3.07 µM (inactive) | 8.97 µM (inactive) | 67.6 µM (inactive) | 24.7 µM (inactive) | 9.82 µM (inactive) | 18.7 µM (inactive) | 53.5 µM (inactive) | 6.32 µM (inactive) | 10.4 µM (inactive) | 5.25 µM (inactive) | 8.47 µM (inactive) | 11.5 µM (inactive) | 4.71 µM (inactive) | 15.2 µM (inactive) | 9.33 µM (inactive) | 16.2 µM (inactive)
5 | C1CCNCC1.S=C(S)N1CCCCC1 | 0.632 µM (active) | 1.74 µM (inactive) | 406 µM (inactive) | 100 µM (inactive) | 64.6 µM (inactive) | – | 85.3 µM (inactive) | 71 µM (inactive) | – | 61.1 µM (inactive) | 28.4 µM (inactive) | 61.2 µM (inactive) | 36.7 µM (inactive) | 129 µM (inactive) | 75.7 µM (inactive) | 0.601 µM (active) | 91 µM (inactive) | 19.1 µM (inactive) | – | 58.7 µM (inactive)
6 | COc1cc2c(cc1OC)C1CN3C(=O)CCC3C(O)C1c1cc(OC)c(OC)cc1-2 (stereo not drawn) | > 100 µM (inactive) | > 100 µM (inactive) | > 100 µM (inactive) | > 100 µM (inactive) | > 100 µM (inactive) | > 100 µM (inactive) | > 100 µM (inactive) | – | > 100 µM (inactive) | > 100 µM (inactive) | > 100 µM (inactive) | 20.9 µM (inactive) | > 100 µM (inactive) | > 100 µM (inactive) | > 100 µM (inactive) | > 100 µM (inactive) | > 100 µM (inactive) | > 100 µM (inactive) | > 100 µM (inactive) | > 100 µM (inactive)
7 | C/C=C/C=C/C1=NN(c2cccc(S(=O)(=O)O)c2)C2(C1)SCC(=O)N2c1nc2ccccc2s1 (stereo not drawn) | 86.3 µM (inactive) | 85.5 µM (inactive) | 35.3 µM (inactive) | > 100 µM (inactive) | 41.2 µM (inactive) | 45.5 µM (inactive) | 37.8 µM (inactive) | – | > 100 µM (inactive) | 36.2 µM (inactive) | > 100 µM (inactive) | 68.5 µM (inactive) | 50.5 µM (inactive) | – | 89.7 µM (inactive) | 44 µM (inactive) | 24.6 µM (inactive) | > 100 µM (inactive) | > 100 µM (inactive) | 47.8 µM (inactive)
8 | COc1ccc([N+](=O)[O-])cc1[I+]c1cc([N+](=O)[O-])ccc1OC | 45.8 µM (inactive) | 12.4 µM (inactive) | 30.9 µM (inactive) | 42.2 µM (inactive) | 43.5 µM (inactive) | 22.5 µM (inactive) | 27.5 µM (inactive) | 54.1 µM (inactive) | 68.9 µM (inactive) | 73.6 µM (inactive) | 33.6 µM (inactive) | – | 81.5 µM (inactive) | > 100 µM (inactive) | 25.1 µM (inactive) | 35 µM (inactive) | 28.8 µM (inactive) | 4.47 µM (inactive) | 38 µM (inactive) | 60.5 µM (inactive)
9 | NS(=O)(=O)c1ccc(NC(=S)NC(=O)Nc2ccc(Cl)c(Cl)c2)cc1 | 14.4 µM (inactive) | 16.1 µM (inactive) | 15.4 µM (inactive) | 14.6 µM (inactive) | 15.8 µM (inactive) | 13 µM (inactive) | 15 µM (inactive) | 18.5 µM (inactive) | 14 µM (inactive) | 18.4 µM (inactive) | 17.9 µM (inactive) | 13.7 µM (inactive) | 1.07 µM (active) | 17.4 µM (inactive) | 12.8 µM (inactive) | 4.55 µM (inactive) | 10.7 µM (inactive) | 15.2 µM (inactive) | 11.5 µM (inactive) | 4.56 µM (inactive)
10 | COc1ccc(OC)c(C2CCc3cnc4nc(N)nc(N)c4c3C2)c1 (stereo not drawn) | 59.6 µM (inactive) | > 100 µM (inactive) | > 100 µM (inactive) | > 100 µM (inactive) | > 100 µM (inactive) | 57.3 µM (inactive) | > 100 µM (inactive) | > 100 µM (inactive) | > 100 µM (inactive) | 91.2 µM (inactive) | 61.9 µM (inactive) | 19.7 µM (inactive) | > 100 µM (inactive) | > 100 µM (inactive) | > 100 µM (inactive) | 46.9 µM (inactive) | > 100 µM (inactive) | > 100 µM (inactive) | 70.1 µM (inactive) | 37.4 µM (inactive)
11 | Cc1nc(C)c(N2CCN(S(N)(=O)=O)CC2)c(O)n1 | > 100 µM (inactive) | > 100 µM (inactive) | > 100 µM (inactive) | > 100 µM (inactive) | > 100 µM (inactive) | > 100 µM (inactive) | – | > 100 µM (inactive) | > 100 µM (inactive) | > 100 µM (inactive) | > 100 µM (inactive) | 0.101 µM (active) | > 100 µM (inactive) | > 100 µM (inactive) | > 100 µM (inactive) | > 100 µM (inactive) | > 100 µM (inactive) | > 100 µM (inactive) | > 100 µM (inactive) | > 100 µM (inactive)
12 | CNC(=O)C(C)NC(=O)C(Cc1ccccc1)NC(=O)OC(C)(C)C (stereo not drawn) | > 100 µM (inactive) | > 100 µM (inactive) | > 100 µM (inactive) | > 100 µM (inactive) | > 100 µM (inactive) | > 100 µM (inactive) | > 100 µM (inactive) | > 100 µM (inactive) | > 100 µM (inactive) | > 100 µM (inactive) | > 100 µM (inactive) | > 100 µM (inactive) | > 100 µM (inactive) | > 100 µM (inactive) | > 100 µM (inactive) | > 100 µM (inactive) | > 100 µM (inactive) | > 100 µM (inactive) | > 100 µM (inactive) | > 100 µM (inactive)
13 | COc1ccc2c(c1[N+](=O)[O-])CC[C@@H]1[C@@H]2CC[C@]2(C)C(=O)CC[C@@H]12 | > 25 µM (inactive) | > 25 µM (inactive) | > 25 µM (inactive) | > 1000 µM (inactive) | > 25 µM (inactive) | 24.9 µM (inactive) | 14.8 µM (inactive) | > 25 µM (inactive) | 21.8 µM (inactive) | > 25 µM (inactive) | > 25 µM (inactive) | > 25 µM (inactive) | > 25 µM (inactive) | > 6.71 µM (inactive) | > 25 µM (inactive) | 24.9 µM (inactive) | > 25 µM (inactive) | 17.2 µM (inactive) | > 25 µM (inactive) | > 25 µM (inactive)
14 | CC1(C)NC(=O)C(NC(=O)C(CC(=O)OCc2ccccc2)NC(=O)OCc2ccccc2)CCCCNC(=O)CCNC1=O (stereo not drawn) (Cbz-D(OBn)K[Aib][βAla]; lactam 2-C; configuration not given here) | > 100 µM (inactive) | > 100 µM (inactive) | > 100 µM (inactive) | > 100 µM (inactive) | > 100 µM (inactive) | > 100 µM (inactive) | – | > 100 µM (inactive) | > 100 µM (inactive) | > 100 µM (inactive) | – | > 100 µM (inactive) | > 100 µM (inactive) | > 100 µM (inactive) | > 100 µM (inactive) | > 100 µM (inactive) | > 100 µM (inactive) | > 100 µM (inactive) | > 100 µM (inactive) | > 100 µM (inactive)
